Target: human-cGAS (h-cGAS) (Homo sapiens, UniProt Q8N884)
Test: hcGAS Kinase-Glo Assay
Type: biochemical
Settings: 40 nM h-cGAS, 100 μM ATP, 100 μM GTP, 25 nM dsDNA, 3 h incubation, read-out: hcGAS potency IC50
Experimental: In some embodiments, the compounds of the instant disclosure may be tested for their human-cGAS (h-cGAS) inhibition activity using the methodology reported in Lama et al., “Development of human cGAS-specific small molecule inhibitors for repression of double stranded DNA (dsDNA)-triggered interferon expression”, Nature Communications 10, Article number: 2261 (2019), incorporated herein by reference. hcGAS Kinase-Glo Assay Compounds were tested for their human-cGAS (h-cGAS) inhibition activity using the methodology reported in Lama et al., “Development of human cGAS-specific small molecule inhibitors for repression of double stranded DNA (dsDNA)-triggered interferon expression”, Nature Communications 10. Article number: 2261 (2019), which is herein incorporated by reference in its entirety, with slight changes to some conditions as shown in Table B. The results of the assays, expressed in IC50 ranges are reported in Table C with the following designations: A represents an IC50 value <0.1 μM; B represents an IC50 value ≥0.1 μM and <0.5 μM; C represents an IC50 value ≥0.5 μM and <1.0 μM; D represents an IC50 value ≥1.0 μM. [table]

human-cGAS (h-cGAS), sequence (Q8N884 whole entry): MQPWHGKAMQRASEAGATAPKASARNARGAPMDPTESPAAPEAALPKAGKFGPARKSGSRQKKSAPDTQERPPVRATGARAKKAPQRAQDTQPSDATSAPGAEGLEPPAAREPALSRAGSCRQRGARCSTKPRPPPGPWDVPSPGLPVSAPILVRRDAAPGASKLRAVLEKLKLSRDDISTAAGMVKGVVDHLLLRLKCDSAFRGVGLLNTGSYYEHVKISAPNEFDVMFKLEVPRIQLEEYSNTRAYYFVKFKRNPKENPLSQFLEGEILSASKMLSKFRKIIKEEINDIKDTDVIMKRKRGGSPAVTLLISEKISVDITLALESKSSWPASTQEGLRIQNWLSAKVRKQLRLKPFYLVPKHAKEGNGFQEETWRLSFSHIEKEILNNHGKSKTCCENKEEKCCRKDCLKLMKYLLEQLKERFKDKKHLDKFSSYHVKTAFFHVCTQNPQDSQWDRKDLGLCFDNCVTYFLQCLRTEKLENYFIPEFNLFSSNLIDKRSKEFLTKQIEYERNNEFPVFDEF

Row | SMILES | IC50 [nM]
1 | CC(C)c1cc(C(=O)Nc2nnc(-c3ccccc3Cl)s2)on1 [Compound 40, N-(5-(2-chlorophenyl)-1,3,4-thiadiazol-2-yl)-3-isopropylisoxazole-5-carboxamide] | 100 to 500
2 | CC1(c2cc(C(=O)Nc3nnc(-c4ccccc4Cl)s3)on2)COC1 [Compound 41, N-(5-(2-chlorophenyl)-1,3,4-thiadiazol-2-yl)-3-(3-methyloxetan-3-yl)isoxazole-5-carboxamide] | 100 to 500
3 | CSc1nnc(NC(=O)c2cn(Cc3ccccc3)nn2)s1 [Compound 42, 1-benzyl-N-(5-(methylthio)-1,3,4-thiadiazol-2-yl)-1H-1,2,3-triazole-4-carboxamide] | ≥ 1000
4 | CSc1nnc(NC(=O)c2onc3c2CN(C(=O)OC(C)(C)C)CC3)s1 [Compound 43, tert-butyl 3-((5-(methylthio)-1,3,4-thiadiazol-2-yl)carbamoyl)-6,7-dihydroisoxazolo[4,3-c]pyridine-5(4H)-carboxylate] | ≥ 1000
5 | CSc1nnc(NC(=O)c2nnc(Cc3cccc(Cl)c3)o2)s1 [Compound 44, 5-(3-chlorobenzyl)-N-(5-(methylthio)-1,3,4-thiadiazol-2-yl)-1,3,4-oxadiazole-2-carboxamide] | ≥ 1000
6 | CSc1nnc(NC(=O)c2nnc(-c3c(F)cccc3F)o2)s1 [Compound 45, 5-(2,6-difluorophenyl)-N-(5-(methylthio)-1,3,4-thiadiazol-2-yl)-1,3,4-oxadiazole-2-carboxamide] | 500 to 1000
7 | CSc1nnc(NC(=O)c2cc(-c3c(F)cccc3F)no2)s1 [Compound 46, 3-(2,6-difluorophenyl)-N-(5-(methylthio)-1,3,4-thiadiazol-2-yl)isoxazole-5-carboxamide] | 100 to 500
8 | CSc1nnc(NC(=O)c2cc(-c3cc(F)ccc3F)no2)s1 [Compound 47, 3-(2,5-difluorophenyl)-N-(5-(methylthio)-1,3,4-thiadiazol-2-yl)isoxazole-5-carboxamide] | 500 to 1000
9 | CSc1nnc(NC(=O)c2cc(-c3ccc(F)cc3F)no2)s1 [Compound 48, 3-(2,4-difluorophenyl)-N-(5-(methylthio)-1,3,4-thiadiazol-2-yl)isoxazole-5-carboxamide] | 500 to 1000
10 | CSc1nnc(NC(=O)c2nnc(Cc3ccccc3Cl)o2)s1 [Compound 49, 5-(2-chlorobenzyl)-N-(5-(methylthio)-1,3,4-thiadiazol-2-yl)-1,3,4-oxdiazole-2-carboxamide] | 500 to 1000
11 | CSc1nnc(NC(=O)c2cc(-c3ccc(Cl)cc3)no2)s1 [Compound 50, 3-(4-chlorophenyl)-N-(5-(methylthio)-1,3,4-thiadiazol-2-yl)isoxazole-5-carboxamide] | 500 to 1000
12 | O=C(Nc1nnc(-c2ccccc2Cl)s1)c1cc(=O)c2cccc(O)c2[nH]1 [Compound 51, N-(5-(2-chlorophenyl)-1,3,4-thiadiazol-2-yl)-8-hydroxy-4-oxo-1,4-dihydroquinoline-2-carboxamide] | 500 to 1000
13 | Cn1cc(-c2cc(C(=O)Nc3nnc(-c4ccccc4Cl)s3)on2)cn1 [Compound 52, N-(5-(2-chlorophenyl)-1,3,4-thiadiazol-2-yl)-3-(1-methyl-1H-pyrazol-4-yl)isoxazole-5-carboxamide] | 100 to 500
14 | Cc1c(-c2cc(C(=O)Nc3nnc(-c4ccccc4Cl)s3)on2)cnn1C [Compound 53, N-(5-(2-chlorophenyl)-1,3,4-thiadiazol-2-yl)-3-(1,5-dimethyl-1H-pyrazol-4-yl)isoxazole-5-carboxamide] | 100 to 500
15 | Cc1nn(C)cc1-c1cc(C(=O)Nc2nnc(-c3ccccc3Cl)s2)on1 [Compound 54, N-(5-(2-chlorophenyl)-1,3,4-thiadiazol-2-yl)-3-(1,3-dimethyl-1H-pyrazol-4-yl)isoxazole-5-carboxamide] | 100 to 500
16 | O=C(Nc1nnc(-c2ccccc2Cl)s1)c1cc(O)no1 [Compound 55, N-(5-(2-chlorophenyl)-1,3,4-thiadiazol-2-yl)-3-hydroxyisoxazole-5-carboxamide] | < 100
17 | O=C(Nc1nnc(-c2ccccc2Cl)s1)c1ccc(O)nn1 [Compound 56, N-(5-(2-chlorophenyl)-1,3,4-thiadiazol-2-yl)-6-hydroxypyridazine-3-carboxamide] | 100 to 500
18 | O=C(Nc1nnc(-c2cccc(Cl)c2Cl)s1)c1cc(O)no1 [Compound 57, N-(5-(2,3-dichlorophenyl)-1,3,4-thiadiazol-2-yl)-3-hydroxyisoxazole-5-carboxamide] | < 100
19 | O=C(Nc1nnc(-c2ccccc2Cl)s1)c1nc[nH]n1 [Compound 58, N-(5-(2-chlorophenyl)-1,3,4-thiadiazol-2-yl)-1H-1,2,4-triazole-3-carboxamide] | 500 to 1000
20 | O=C(Nc1nnc(-c2ccccc2Cl)s1)c1c[nH]nn1 [Compound 59, N-(5-(2-chlorophenyl)-1,3,4-thiadiazol-2-yl)-1H-1,2,3-triazole-4-carboxamide] | 500 to 1000

Row | SMILES | IC50 [nM]
21 | O=C(Nc1nnc(-c2ccccc2Cl)s1)c1nnn[nH]1 [Compound 60, N-(5-(2-chlorophenyl)-1,3,4-thiadiazol-2-yl)-1H-tetrazole-5-carboxamide] | ≥ 1000
22 | O=C(Nc1nnc(-c2ccccc2Cl)s1)c1c[nH]c(=O)o1 [Compound 61, N-(5-(2-chlorophenyl)-1,3,4-thiadiazol-2-yl)-2-oxo-2,3-dihydrooxazole-5-carboxamide] | 100 to 500
23 | O=C(Nc1nnc(-c2ccccc2Cl)s1)c1ccnc(=O)[nH]1 [Compound 62, N-(5-(2-chlorophenyl)-1,3,4-thiadiazol-2-yl)-2-oxo-2,3-dihydropyrimidine-4-carboxamide] | ≥ 1000
24 | O=C(Nc1nnc(-c2ccccc2Cl)s1)c1n[nH]c(=O)[nH]1 [Compound 63, N-(5-(2-chlorophenyl)-1,3,4-thiadiazol-2-yl)-5-oxo-4,5-dihydro-1H-1,2,4-triazole-3-carboxamide] | 500 to 1000
25 | O=C(Nc1nnc(-c2ccccc2Cl)s1)c1ccc(O)c(=O)o1 [Compound 64, N-(5-(2-chlorophenyl)-1,3,4-thiadiazol-2-yl)-3-hydroxy-2-oxo-2H-pyran-6-carboxamide] | < 100
26 | CSc1nnc(NC(=O)c2nc(-c3ccccc3)cs2)s1 [Compound 65, N-(5-(methylthio)-1,3,4-thiadiazol-2-yl)-4-phenylthiazole-2-carboxamide] | ≥ 1000
27 | CSc1nnc(NC(=O)c2nnn(-c3ccccc3)n2)s1 [Compound 66, N-(5-(methylthio)-1,3,4-thiadiazol-2-yl)-2-phenyl-2H-tetrazole-5-carboxamide] | 500 to 1000
28 | CSc1nnc(NC(=O)c2onc3c2CCCC3)s1 [Compound 67, N-(5-(methylthio)-1,3,4-thiadiazol-2-yl)-4,5,6,7-tetrahydrobenzo[c]isoxazole-3-carboxamide] | 500 to 1000
29 | CSc1nnc(NC(=O)c2cc(-c3cccc4c3CCC4)no2)s1 [Compound 68, 3-(2,3-dihydro-1H-inden-4-yl)-N-(5-(methylthio)-1,3,4-thiadiazol-2-yl)isoxazole-5-carboxamide] | 500 to 1000
30 | CCc1nnc(NC(=O)c2onc3ccccc23)s1 [Compound 69, N-(5-ethyl-1,3,4-thiadiazol-2-yl)benzo[c]isoxazole-3-carboxamide] | 500 to 1000
31 | CCSc1nnc(NC(=O)c2onc3ccccc23)s1 [Compound 70, N-(5-(ethylthio)-1,3,4-thiadiazol-2-yl)benzo[c]isoxazole-3-carboxamide] | ≥ 1000
32 | CSc1nnc(NC(=O)c2nc(-c3cnccn3)no2)s1 [Compound 71, N-(5-(methylthio)-1,3,4-thiadiazol-2-yl)-3-(pyrazin-2-yl)-1,2,4-oxadiazole-5-carboxamide] | 500 to 1000
33 | CSc1nnc(NC(=O)c2cncc(-c3ccccn3)c2)s1 [Compound 72, N-(5-(methylthio)-1,3,4-thiadiazol-2-yl)-[2,3′-bipyridine]-5′-carboxamide] | ≥ 1000
34 | CSc1nnc(NC(=O)c2nnc(N3CCC3c3ccccc3)o2)s1 (stereo not shown) [Compound 74, N-(5-(methylthio)-1,3,4-thiadiazol-2-yl)-5-(2-phenylazetidin-1-yl)-1,3,4-oxadiazole-2-carboxamide] | ≥ 1000
35 | CSc1nnc(NC(=O)c2cc(-c3cccs3)no2)s1 [Compound 75, N-(5-(methylthio)-1,3,4-thiadiazol-2-yl)-3-(thiophen-2-yl)isoxazole-5-carboxamide] | 500 to 1000
36 | CSc1nnc(NC(=O)c2cnc(-c3cccs3)s2)s1 [Compound 76, N-(5-(methylthio)-1,3,4-thiadiazol-2-yl)-2-(thiophen-2-yl)thiazole-5-carboxamide] | ≥ 1000
37 | CSc1nnc(NC(=O)c2nc(-c3cccs3)oc2C)s1 [Compound 77, 5-methyl-N-(5-(methylthio)-1,3,4-thiadiazol-2-yl)-2-(thiophen-2-yl)oxazole-4-carboxamide] | ≥ 1000
38 | CSc1nnc(NC(=O)c2cc3c(C)cc(F)cc3[nH]2)s1 [Compound 78, 6-fluoro-4-methyl-N-(5-(methylthio)-1,3,4-thiadiazol-2-yl)-1H-indole-2-carboxamide] | 500 to 1000
39 | CSc1nnc(NC(=O)c2onc3ccccc23)s1 [Compound 79, N-(5-(methylthio)-1,3,4-thiadiazol-2-yl)benzo[c]isoxazole-3-carboxamide] | 500 to 1000
40 | CSc1nnc(NC(=O)c2cc(C3CCOCC3)no2)s1 [Compound 80, N-(5-(methylthio)-1,3,4-thiadiazol-2-yl)-3-(tetrahydro-2H-pyran-4-yl)isoxazole-5-carboxamide] | 500 to 1000

Reference: patent US20250002487A1, “HETEROCYCLIC COMPOUNDS AND USES THEREOF” (Ventus Therapeutics U.S., Inc., priority 2021, published 2025)
